Laboratory results: patent US9365553B2, “Heterocyclic compound and H1 receptor antagonist” (Aska Pharmaceutical Co., Ltd., priority 2010, dated 2016)

Assays:
[1] = test system: histamine-induced skin reaction in mouse; assay: Skin reaction test in mouse (Test Example 4); type: in vivo; conditions: oral, histamine 3 μg/50 μL/site intradermal, pigment area, read-out: Skin reaction test in mouse ID50
Experimental: (§1) Each mouse was sheared the day before test and fasted overnight. A low, middle or high dose of each test compound suspended in a 0.5% (W/V) CMC-Na aqueous solution was orally administered to the mouse. One hour after the administration, a 1% Evans Blue physiological saline solution (Tokyo Chemical Industry Co., Ltd.) was administered into the caudal vein in a dose of 10 mL/kg, and immediately histamine 3 μg/50 μL/site was intradermally administered into the dorsum. Thirty minutes after the administration, the mouse was anesthetized with diethyl ether and then euthanized by cervical dislocation. The skin was ablated, and the major axis and minor axis of a spot of the pigment exuded into the skin were measured to calculate the area of the pigment.

[2] = test system: histamine-induced skin reaction in rat; assay: Histamine-induced skin reaction test in rat (Test Example 3); type: in vivo; conditions: oral, histamine 10 μg/0.1 mL/site intradermal, pigment area, read-out: Skin reaction test in rat ID50
Experimental: as §1, with “Each mouse was sheared the day before test and fasted overnight. A low, middle or high dose of each test compound suspended in a 0.5% (W/V) CMC-Na aqueous solution was orally administered to the mouse.” left out, “5” for “10”, “10 μg/0.1 mL/site (manufactured by Wako Pure Chemical Industries, Ltd.)” for “3 μg/50 μL/site”, “rat” for “mouse”

rat H1 receptor = biological target: T1, rat H1 receptor (Rattus norvegicus, UniProt P31390); assay: Rat H1 receptor affinity test (Test Example 1); type: binding; conditions: rat cerebrum membrane preparation, [3H]-pyrilamine 2 nmol/L
T1 construct: An H1 receptor membrane preparation was prepared from rat cerebrum; from tissue; host or cells: rat cerebrum
T1 sequence (P31390 whole entry): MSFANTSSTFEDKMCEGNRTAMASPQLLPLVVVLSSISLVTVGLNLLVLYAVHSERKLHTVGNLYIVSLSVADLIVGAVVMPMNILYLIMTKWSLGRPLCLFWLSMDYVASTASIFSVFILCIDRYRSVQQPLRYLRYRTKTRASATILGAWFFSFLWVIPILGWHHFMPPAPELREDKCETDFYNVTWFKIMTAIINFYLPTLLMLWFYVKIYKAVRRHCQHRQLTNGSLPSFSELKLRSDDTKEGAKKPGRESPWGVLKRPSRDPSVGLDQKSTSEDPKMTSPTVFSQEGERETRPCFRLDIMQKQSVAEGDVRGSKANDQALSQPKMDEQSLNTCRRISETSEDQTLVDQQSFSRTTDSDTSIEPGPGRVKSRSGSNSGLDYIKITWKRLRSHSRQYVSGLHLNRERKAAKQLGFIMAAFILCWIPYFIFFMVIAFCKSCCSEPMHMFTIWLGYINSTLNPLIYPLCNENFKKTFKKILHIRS
Experimental: An H1 receptor membrane preparation was prepared from rat cerebrum. […] To the resulting each sample, 50 μL of 8 nmol/L [^3H]-pyrilamine (manufactured by PerkinElmer) (final concentration: 2 nmol/L) was added and mixed. After the mixture was incubated at a room temperature for 30 minutes, the reaction solution was collected on a glass filter by a cell harvester (manufactured by Molecular Devices), and then the filter was washed with the incubation buffer. The glass filter was cut off and transferred in a vial. To the vial was added 5 mL of a scintillator (manufactured by National Diagnostics), and the mixture was shaken for not less than one hour. Thereafter, the radioactive concentration was measured by a liquid scintillation counter.

human H1 receptor = biological target: T2, human H1 receptor (Homo sapiens, UniProt P35367); assay: Human H1 receptor affinity test (Test Example 2); type: binding; conditions: CHO cell membrane preparation expressing human H1 receptor, [3H]-pyrilamine 2 nmol/L
T2 construct: purchased; host or cells: CHO cells
T2 sequence (P35367 whole entry): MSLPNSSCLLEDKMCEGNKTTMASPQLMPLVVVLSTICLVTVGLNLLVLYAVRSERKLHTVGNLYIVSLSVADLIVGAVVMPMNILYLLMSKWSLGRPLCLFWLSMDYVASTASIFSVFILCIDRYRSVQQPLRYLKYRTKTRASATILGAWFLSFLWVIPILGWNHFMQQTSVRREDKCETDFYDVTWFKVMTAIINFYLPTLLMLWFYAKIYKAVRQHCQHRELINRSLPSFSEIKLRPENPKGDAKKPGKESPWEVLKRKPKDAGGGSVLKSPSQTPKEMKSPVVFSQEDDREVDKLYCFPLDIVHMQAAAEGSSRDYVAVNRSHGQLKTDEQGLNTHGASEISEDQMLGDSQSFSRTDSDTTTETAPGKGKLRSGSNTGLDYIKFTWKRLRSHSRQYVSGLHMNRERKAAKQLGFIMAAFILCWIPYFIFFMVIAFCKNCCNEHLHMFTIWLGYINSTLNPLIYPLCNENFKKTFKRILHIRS
Experimental: Chinese hamster ovarian cells (CHO cells) having human H1 receptor forcibly express were purchased and used as an H1 receptor membrane preparation. […] To the resulting each sample, 50 μL of 8 nmol/L [^3H]-pyrilamine (final concentration: 2 nmol/L) was added and mixed. […] The glass filter was cut off and transferred in a vial. To the vial was added 5 mL of a scintillator (manufactured by National Diagnostics), and the mixture was shaken for not less than one hour. Thereafter, the radioactive concentration was measured by a liquid scintillation counter.

[3] = test system: mouse IgE-dependent ear edema model; assay: Inhibitory effects on mouse IgE-dependent ear edema model (Test Example 5); type: in vivo; conditions: oral twice a day, dose one-third of ID50 (Dose column of Table D); for Inhibitory effects in each allergic reaction phase: Immediate phase: mouse ear swelling 1 hour after antigen; for Inhibitory effects in each allergic reaction phase: Late phase: mouse ear swelling 24 hours after antigen; for Inhibitory effects in each allergic reaction phase: Very late phase: mouse ear swelling 7 days after antigen;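 on all read-outs here: doses given 1 h before and 6 h after antigen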
Experimental: (§2) To each mouse, 0.25 mL of an anti-DNP-IgE antibody (manufactured by SIGMA-ALDRICH) was intravenously administered for passive sensitization. On the day following the administration, an antigen (DNFB solution; manufactured by Wako Pure Chemical Industries, Ltd.) was applied on the right ear to induce dermatitis (ear swelling). One hour, 24 hours and 7 days after the application of the antigen, the thickness of the right ear was measured by a thickness measuring apparatus (dial thickness gauge). […] The thickness of the right ear before the sensitization was measured beforehand; the inhibition rates of the swelling in immediate phase, late phase, and very late phase were calculated.

[4] = test system: mouse IgE-dependent ear edema model; assay: Inhibitory effects on mouse IgE-dependent ear edema model (Test Example 8); type: in vivo; conditions: oral twice a day, dose a multiple of mouse ID50 (Dose column of Table E); for Inhibitory effects in each allergic reaction phase: Immediate phase: mouse ear swelling 1 hour after antigen; for Inhibitory effects in each allergic reaction phase: Late phase: mouse ear swelling 24 hours after antigen; for Inhibitory effects in each allergic reaction phase: Very late phase: mouse ear swelling 7 days after antigen;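 on all read-outs here: 5 or 10 times the mouse skin-reaction ID50 per dose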
Experimental: as §2

| Structure (SMILES) | ED50 [1] [mg/kg] | ED50 [2] [mg/kg] | IC50 (rat H1 receptor) [nM] | IC50 (human H1 receptor) [nM] | Inhibitory effects in each allergic reaction phase: Immediate phase [3] | Inhibitory effects in each allergic reaction phase: Late phase [3] | Inhibitory effects in each allergic reaction phase: Very late phase [3] | Inhibitory effects in each allergic reaction phase: Immediate phase [4] | Inhibitory effects in each allergic reaction phase: Late phase [4] | Inhibitory effects in each allergic reaction phase: Very late phase [4] |
| --- | --- | --- | --- | --- | --- | --- | --- | --- | --- | --- |
| O=C(O)c1cccc(CN2CCC(=C3c4ccc(Cl)cc4CCc4cccnc43)CC2)c1 [Example 67, 3-[4-(8-Chloro-5,6-dihydrobenzo[5,6]cyclohepta[1,2-b]pyridin-11-ylidene)piperidin-1-ylmethyl]benzoic acid] | 0.09 | 1.2 | – | – | – | – | – | – | – | – |
| O=C(O)c1cccc(CN2CCC(OC(c3ccccc3)c3ccc(Cl)cc3)CC2)n1 (stereo not drawn) [Example 22] | 0.01 | 0.5 | 5.7 | 13 | – | – | – | – | – | – |
| O=C(O)c1cccc(CN2CCC(OC(c3ccccc3)c3ccc(F)c(F)c3)CC2)n1 (stereo not drawn) [Example 48] | 0.05 | 2.9 | 53 | 25 | – | – | – | – | – | – |
| O=C(O)c1cccc(C(F)(F)N2CCC(OC(c3ccccc3)c3ccccc3)CC2)n1 [Example 37, 6-[(4-Benzhydryloxypiperidin-1-yl)difluoromethyl]pyridine-2-carboxylic acid] | 0.06 | 3.2 | 75 | 12 | – | – | – | – | – | – |
| O=C(O)c1cccc(CN2CCN(C(c3ccc(F)cc3)c3ccc(F)cc3)CC2)n1 [Example 11, 6-{4-[bis(4-fluorophenyl)methyl]piperazin-1-ylmethyl}pyridine-2-carboxylic acid] | 0.01 | 0.3 | 280 | 22 | ++ (++ Inhibitory rate 45 to 25%) | ++ (++ Inhibitory rate 45 to 25%) | ++ (++ Inhibitory rate 45 to 25%) | ++ (++ Inhibitory rate 45 to 20%) | ++ (++ Inhibitory rate 45 to 20%) | ++ (++ Inhibitory rate 45 to 20%) |
| CN(C)CC/C=C1/c2ccccc2COc2ccc(CC(=O)O)cc21 [Olopatadine] | – | – | – | – | ++ (++ Inhibitory rate 45 to 25%) | − (− Inhibitory rate less than 10%) | + (+ Inhibitory rate 24 to 10%) | ++ (++ Inhibitory rate 45 to 20%) | − (− Inhibitory rate less than 10%) | − (− Inhibitory rate less than 10%) |
| O=C(O)c1ccnc(CN2CCC(OC(c3ccccc3)c3ccc(F)cc3)CC2)c1 (stereo not drawn) [Example 39] | 0.04 | 1.3 | 72 | 6.8 | ++ (++ Inhibitory rate 45 to 25%) | ++ (++ Inhibitory rate 45 to 25%) | ++ (++ Inhibitory rate 45 to 25%) | ++ (++ Inhibitory rate 45 to 20%) | ++ (++ Inhibitory rate 45 to 20%) | ++ (++ Inhibitory rate 45 to 20%) |
| O=C(O)c1cccc(CN2CCC(OC(c3ccccc3)c3ccccc3)CC2)n1 [Example 2, 6-(4-benzhydryloxypiperidin-1-ylmethyl)pyridine-2-carboxylic acid] | 0.1 | 3.4 | 25 | 10 | ++ (++ Inhibitory rate 45 to 25%) | ++ (++ Inhibitory rate 45 to 25%) | + (+ Inhibitory rate 24 to 10%) | ++ (++ Inhibitory rate 45 to 20%) | ++ (++ Inhibitory rate 45 to 20%) | + (+ Inhibitory rate 19 to 10%) |
| O=C(O)c1cccc(CN2CCC(=C3c4ccccc4C=Cc4cccnc43)CC2)n1 [Example 71] | 0.07 | 0.6 | 16 | 14 | – | – | – | – | – | – |
| O=C(O)c1cc(CN2CCC(OC(c3ccccc3)c3ccccc3)CC2)cs1 [Example 5] | 0.11 | 1.8 | 7 | 10 | – | – | – | – | – | – |
| O=C(O)c1cccc(CN2CCC(=C3c4ccccc4C=Cc4cccnc43)CC2)c1 [Example 70] | 0.12 | 1.6 | 28 | 14 | – | – | – | – | – | – |
| O=C(O)CCCN1CCC(O[C@@H](c2ccc(Cl)cc2)c2ccccn2)CC1 [Bepotastine] | 0.02 | 0.5 | 170 | 20 | – | – | – | – | – | – |
